Laboratory results as given in ChEMBL document CHEMBL4406824, “Phenolic N-monosubstituted carbamates: Antitubercular and toxicity evaluation of multi-targeting compounds” (Eur J Med Chem, 2019).
Converted amounts (≈) assume the structure as drawn.

Tests used:
[1] = test system: Mycobacterium avium; assay: Antimycobacterial activity against Mycobacterium avium 330/88 after 14 days; assay type: functional; settings: 330/88, 336 h
[2] = test system: Mycobacterium kansasii; assay: Antimycobacterial activity against Mycobacterium kansasii 6509/96 after 7 days; assay type: functional; settings: 6509/96, 168 h
[3] = test system: Mycobacterium kansasii; assay: Potency index, ratio of p-aminosalicylic acid MIC to compound MIC for antimycobacterial activity against Mycobacterium kansasii 235/80; assay type: functional
[4] = test system: Mycobacterium kansasii; assay: Antimycobacterial activity against Mycobacterium kansasii 235/80 after 7 days; assay type: functional; settings: 235/80, 168 h
[5] = test system: Mycobacterium tuberculosis; assay type: functional, H37Rv 331/88; set-up: reference not given here
[6] = test system: Mycobacterium tuberculosis H37Rv; assay: Inhibition of recombinant Mycobacterium tuberculosis H37Rv ICL1 expressed in Escherichia coli BL21 (DE3) cells at 10 uM using (+)-potassium Ds-threo-isocitrate as substrate by glyoxylate phenyl hydrazone formation assay relative to control
[7] = test system: Mycobacterium kansasii; assay: Antimycobacterial activity against Mycobacterium kansasii 235/80 after 21 days; assay type: functional; settings: 235/80, 504 h
[8] = test system: Mycobacterium avium; assay: Antimycobacterial activity against Mycobacterium avium 330/88 after 21 days; assay type: functional; settings: 330/88, 504 h
[9] = test system: Mycobacterium kansasii; assay: Potency index, ratio of p-aminosalicylic acid MIC to compound MIC for antimycobacterial activity against Mycobacterium kansasii 6509/96; assay type: functional
[10] = test system: Mycobacterium tuberculosis; assay type: functional; settings: H37Rv 331/88, 336 h
[11] = test system: Mycobacterium kansasii; assay: Antimycobacterial activity against Mycobacterium kansasii 235/80 after 14 days; assay type: functional; settings: 235/80, 336 h
[12] = test system: Mycobacterium tuberculosis; assay type: functional; settings: H37Rv 331/88, 504 h
[13] = test system: Mycobacterium tuberculosis; assay: Antimycobacterial activity against Mycobacterium tuberculosis H37Ra ITM-M006710 after 48 hr by resazurin dye based microdilution method; assay type: functional; settings: H37Ra ITM-M006710, 48 h
[14] = test system: Mycobacterium tuberculosis; assay: Antimycobacterial activity against XDR Mycobacterium tuberculosis Praha 131 after 14 days; assay type: functional; settings: Praha 131, 336 h
[15] = test system: HepG2; assay: Cytostatic activity against human HepG2 cells preincubated for overnight in serum free medium followed by compound wash out and further incubated for 72 hrs in presence of serum by MTT assay; assay type: ADME, cell-based
[16] = test system: Mycobacterium tuberculosis; assay: Antimycobacterial activity against XDR Mycobacterium tuberculosis Praha 131 after 21 days; assay type: functional; settings: Praha 131, 504 h
[17] = test system: Mycobacterium kansasii; assay: Antimycobacterial activity against Mycobacterium kansasii 6509/96 after 14 days; assay type: functional; settings: 6509/96, 336 h
[18] = test system: HepG2; assay: Cytotoxicity against human HepG2 cells assessed as reduction in cell viability after overnight incubation by MTT assay; assay type: cell-based
[19] = test system: Mycolicibacterium aurum; assay: Antimycobacterial activity against Mycobacterium aurum DSM 43999 after 72 hr by resazurin dye based microdilution method; assay type: functional; settings: DSM 43999, 72 h
[20] = test system: Mycobacterium kansasii; assay: Antimycobacterial activity against Mycobacterium kansasii 6509/96 after 21 days; assay type: functional; settings: 6509/96, 504 h
[21] = test system: Mycolicibacterium smegmatis; assay: Antimycobacterial activity against Mycobacterium smegmatis DSM 43465 after 120 hr by resazurin dye based microdilution method; assay type: functional; settings: DSM 43465, 120 h
[22] = in vitro; settings: human, HepG2 cells
Description: Selectivity index, ratio of IC50 for human HepG2 cells to MIC for antimycobacterial activity against Mycobacterium tuberculosis H37Rv

[23] = test system: Mycobacterium avium; assay: Potency index, ratio of p-aminosalicylic acid MIC to compound MIC for antimycobacterial activity against Mycobacterium avium 330/88; assay type: functional
[24] = molecular target: T1, Isocitrate lyase (Mycobacterium tuberculosis, UniProt P9WKK7); assay: Inhibition of recombinant Mycobacterium tuberculosis ICL expressed in Escherichia coli BL21 (DE3) cells using DL-isocitric acid trisodium salt hydrate as substrate after 30 mins
T1 sequence (P9WKK7 whole entry): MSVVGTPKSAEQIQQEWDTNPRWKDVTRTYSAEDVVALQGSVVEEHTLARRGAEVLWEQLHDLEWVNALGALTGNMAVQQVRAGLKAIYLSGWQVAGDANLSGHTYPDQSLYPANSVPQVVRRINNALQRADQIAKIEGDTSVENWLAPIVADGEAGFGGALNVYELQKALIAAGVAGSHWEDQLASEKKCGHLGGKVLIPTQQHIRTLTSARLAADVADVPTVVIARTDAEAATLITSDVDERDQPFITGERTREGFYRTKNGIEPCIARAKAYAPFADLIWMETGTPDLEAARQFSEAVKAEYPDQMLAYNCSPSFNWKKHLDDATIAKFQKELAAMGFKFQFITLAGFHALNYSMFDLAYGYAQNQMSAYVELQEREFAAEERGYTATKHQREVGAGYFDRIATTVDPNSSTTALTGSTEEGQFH

Compound | MIC [1] | MIC [2] | Ratio [3] | MIC [4] | Ratio [5] | inhibition [6] | MIC [7] | MIC [8] | Ratio [9] | MIC [10] | MIC [11] | MIC [12] | MIC [13] | IC50 [15] | MIC [17] | IC50 [18] | MIC [19] | MIC [20] | MIC [21] | selectivity ratio [22] | other results
O=C(Nc1ccccc1)Oc1ccc(Cl)cc1C(=O)Nc1ccc(C(F)(F)F)cc1 | 8 µM (≈ 3.48 µg/mL) | 2 µM (≈ 0.87 µg/mL) | >250 | 4 µM (≈ 1.74 µg/mL) | >125 | 13% | 4 µM (≈ 1.74 µg/mL) | 8 µM (≈ 3.48 µg/mL) | >250 | ≤ 0.5 µM | 4 µM (≈ 1.74 µg/mL) | 1 µM (≈ 0.435 µg/mL) | ≤ 0.9 µM | 2.45 µM | 4 µM (≈ 1.74 µg/mL) | 9.8 µM | ≤ 0.9 µM | 4 µM (≈ 1.74 µg/mL) | ≤ 0.9 µM | 9.8 to 19.6 | MIC [14]: 1 µM (≈ 0.435 µg/mL); MIC [16]: 1 µM (≈ 0.435 µg/mL)
O=C(NC1CCCCC1)Oc1ccc(Cl)cc1C(=O)Nc1ccc(C(F)(F)F)cc1 | 8 µM (≈ 3.53 µg/mL) | 2 µM (≈ 0.882 µg/mL) | >250 | 4 µM (≈ 1.76 µg/mL) | >125 | 14% | 8 µM (≈ 3.53 µg/mL) | 8 µM (≈ 3.53 µg/mL) | >250 | 1 µM (≈ 0.441 µg/mL) | 4 µM (≈ 1.76 µg/mL) | 1 µM (≈ 0.441 µg/mL) | ≤ 0.88 µM | 0.75 µM | 4 µM (≈ 1.76 µg/mL) | > 125 µM | ≤ 0.88 µM | 4 µM (≈ 1.76 µg/mL) | ≤ 0.88 µM | > 125 | MIC [14]: 0.5 µM (≈ 0.22 µg/mL); MIC [16]: 1 µM (≈ 0.441 µg/mL)
O=C(NC12CC3CC(CC(C3)C1)C2)Oc1ccc(Cl)cc1C(=O)Nc1ccc(C(F)(F)F)cc1 | 4 µM (≈ 1.97 µg/mL) | 4 µM (≈ 1.97 µg/mL) | >250 | 4 µM (≈ 1.97 µg/mL) | >125 | 15% | 4 µM (≈ 1.97 µg/mL) | 4 µM (≈ 1.97 µg/mL) | >250 | ≤ 0.5 µM | 4 µM (≈ 1.97 µg/mL) | 1 µM (≈ 0.493 µg/mL) | 2 µM | 4.85 µM | 4 µM (≈ 1.97 µg/mL) | > 125 µM | ≤ 0.79 µM | 4 µM (≈ 1.97 µg/mL) | 4 µM | > 125 | MIC [14]: 1 µM (≈ 0.493 µg/mL); Ratio [23]: >31; MIC [16]: 1 µM (≈ 0.493 µg/mL)
COC(=O)/C=C/C(=O)c1ccc(OC)cc1 | – | – | – | – | – | – | – | – | – | – | – | – | – | – | – | – | – | – | – | – | IC50 [24]: 30.9 µM
O=C(NCCc1ccccc1)Oc1ccc(Cl)cc1C(=O)Nc1ccc(C(F)(F)F)cc1 | 8 µM (≈ 3.7 µg/mL) | 2 µM (≈ 0.926 µg/mL) | >250 | 4 µM (≈ 1.85 µg/mL) | >125 | 11% | 8 µM (≈ 3.7 µg/mL) | 8 µM (≈ 3.7 µg/mL) | >250 | ≤ 0.5 µM | 4 µM (≈ 1.85 µg/mL) | 1 µM (≈ 0.463 µg/mL) | 0.84 to 1.69 µM | 1 µM | 4 µM (≈ 1.85 µg/mL) | > 125 µM | ≤ 0.84 µM | 4 µM (≈ 1.85 µg/mL) | ≤ 0.84 µM | > 125 | MIC [14]: 2 µM (≈ 0.926 µg/mL); MIC [16]: 2 µM (≈ 0.926 µg/mL)
O=C(NCCc1ccccc1)Oc1ccc(Cl)cc1C(=O)Nc1ccc(F)cc1 | 32 µM (≈ 13.2 µg/mL) | 8 µM (≈ 3.3 µg/mL) | >250 | 8 µM (≈ 3.3 µg/mL) | >125 | 15% | 16 µM (≈ 6.61 µg/mL) | 32 µM (≈ 13.2 µg/mL) | >250 | 4 µM (≈ 1.65 µg/mL) | 16 µM (≈ 6.61 µg/mL) | 4 µM (≈ 1.65 µg/mL) | 3.12 µg/mL | 7.6 µM | 16 µM (≈ 6.61 µg/mL) | 41.5 µM | 3.12 µg/mL | 16 µM (≈ 6.61 µg/mL) | 3.12 µg/mL | 10.4 | –
O=C(NCc1ccccc1)Oc1ccc(Cl)cc1C(=O)Nc1ccc(C(F)(F)F)cc1 | 32 µM (≈ 14.4 µg/mL) | 8 µM (≈ 3.59 µg/mL) | >250 | 8 µM (≈ 3.59 µg/mL) | >125 | 14% | 16 µM (≈ 7.18 µg/mL) | 32 µM (≈ 14.4 µg/mL) | >250 | 2 µM (≈ 0.898 µg/mL) | 16 µM (≈ 7.18 µg/mL) | 4 µM (≈ 1.8 µg/mL) | ≤ 0.87 µM | 3 µM | 16 µM (≈ 7.18 µg/mL) | > 125 µM | ≤ 0.87 µM | 16 µM (≈ 7.18 µg/mL) | 1.74 µM | > 31.3 | –
O=C(NC12CC3CC(CC(C3)C1)C2)Oc1ccc(Cl)cc1C(=O)Nc1ccc(Br)cc1 | 8 µM (≈ 4.03 µg/mL) | 4 µM (≈ 2.02 µg/mL) | >250 | 4 µM (≈ 2.02 µg/mL) | >125 | 18% | 8 µM (≈ 4.03 µg/mL) | 8 µM (≈ 4.03 µg/mL) | >250 | 8 µM (≈ 4.03 µg/mL) | 8 µM (≈ 4.03 µg/mL) | 8 µM (≈ 4.03 µg/mL) | 1.56 µg/mL | 4.35 µM | 8 µM (≈ 4.03 µg/mL) | 4.2 µM | 1.56 µg/mL | 8 µM (≈ 4.03 µg/mL) | 3.12 µg/mL | 0.5 | –
O=C(Nc1ccccc1)Oc1ccc(Cl)cc1C(=O)Nc1ccc(Br)cc1 | 8 µM (≈ 3.57 µg/mL) | 4 µM (≈ 1.78 µg/mL) | >250 | 4 µM (≈ 1.78 µg/mL) | >125 | 17% | 8 µM (≈ 3.57 µg/mL) | 16 µM (≈ 7.13 µg/mL) | >250 | 8 µM (≈ 3.57 µg/mL) | 8 µM (≈ 3.57 µg/mL) | 16 µM (≈ 7.13 µg/mL) | 1.56 µg/mL | 5.45 µM | 8 µM (≈ 3.57 µg/mL) | > 50 µM | 1.56 µg/mL | 8 µM (≈ 3.57 µg/mL) | 1.56 µg/mL | > 6.3 | –
O=C(Nc1ccccc1)Oc1ccc(Cl)cc1C(=O)Nc1ccc(Cl)cc1 | 16 µM (≈ 6.42 µg/mL) | 8 µM (≈ 3.21 µg/mL) | >250 | 16 µM (≈ 6.42 µg/mL) | >125 | 10% | 32 µM (≈ 12.8 µg/mL) | 16 µM (≈ 6.42 µg/mL) | >250 | 16 µM (≈ 6.42 µg/mL) | 32 µM (≈ 12.8 µg/mL) | 16 µM (≈ 6.42 µg/mL) | 1.56 µg/mL | 0.9 µM | 16 µM (≈ 6.42 µg/mL) | > 250 µM | 1.56 µg/mL | 16 µM (≈ 6.42 µg/mL) | 1.56 µg/mL | > 15.6 | –
